Experimental data published in patent US6869593B2, “Non-isotopic detection of osteoblastic activity in vivo using modified bisphosphonates” (Beth Israel Deaconess Medical Center, priority 2000, dated 2005).
Values belong to the compound of their own block, whether it stands above or below them.

Legend:
[1] = Competition of Pam78 binding to HA by unlabeled pamidronate; settings: 80 nmol (800 μM) unlabeled pamidronate; 2.5 μM Pam78; 1.5 mg/ml HA; three hours
Method: For competition experiments, free pamidronate was pre-incubated in 100 μl NK buffer with 1.5 mg/ml (1.5 mM) HA for five minutes at room temperature with continuous vortexing. Pam78 was then added from a 20× stock solution to a final concentration of 2.5 μM. Incubation at 37° C. with continuous vortexing continued for three hours prior to filtration and measurement as described above.

[2] = Kinetic binding to hydroxyapatite crystals; settings: 5 μM compound, 37° C.
Method: In Vitro Hydroxyapatite Binding Experiments. For kinetic measurements of binding to HA, 5 μM Pam78 or the carboxylic acid of IRDye78 was added from a 20× stock solution to 100 μl NK buffer containing 1.5 mg/ml (1.5 mM) HA. Suspensions were continuously vortexed at 37° C. for the time indicated. Bound and unbound material was separated using a 0.2 μm filter in a 96-well format (Model MAGVN2210, Millipore, Bedford, Mass.), and the concentration of material in the filtrate was measured using the SPECTRAmax Gemini XS fluorescence microplate reader set for an excitation wavelength of 771 nm and an emission wavelength of 796 nm. Bound material was calculated by subtracting unbound compound from the total added to each reaction.

[3] = Spectral measurements (absorbance, fluorescence); assay type: physicochemical
Method: Spectral Measurements. Absorbance measurements and scans were performed on a Model DU-600 spectrophotometer (Beckman, Fullerton, Calif.) using 1 μM of each compound in 20 mM N-ethylmorpholine (NEM), pH 7.4 and 150 mM KCl (NK buffer). Fluorescence measurements, and excitation/emission scans were performed on a SPECTRAmax Gemini XS microplate reader (Molecular Devices, Sunnyvale, Calif.) using Model 655076 black 96-well plates (Greiner, Lake Mary, Fla.), and […] of each compound in NK buffer. Curves were analyzed using SOFTmax PRO software (Molecular Devices, Sunnyvale, Calif.) and plotted using Prism3 for the Macintosh (GraphPad Software, Inc., San Diego, Calif.).

[4] = In vivo near-infrared fluorescence imaging of HA
Method: Compound Injection and Measurement of Serum Concentration. Hairless 7 week old male nu/nu mice (Charles River Laboratories, Wilmington, Mass.; average weight 25 g) were anesthetized with 50 mg/kg i.p. pentobarbital. The lateral tail vein was visualized using a flashlight and 2.6 nmol of compound resuspended in 80 μl of phosphate buffered saline (PBS) was injected using a bent, 30 gauge, ½″ needle.

[5] = Quantitation of skeletal uptake by rib fluorescence intensity
Method: However, we were able to estimate skeletal uptake by measuring fluorescence intensity of the ribs in the skinless animal. Calibration standards matching the geometry of the ribs were placed next to the animal and mean fluorescence intensities of each standard and the caudal three ribs on each side were measured.

[6] = Serum concentration after intravenous injection (plasma elimination); settings: 2.6 nmol intravenous, tail vein
Method: Hairless 7 week old male nu/nu mice (Charles River Laboratories, Wilmington, Mass.; average weight 25 g) were anesthetized with 50 mg/kg i.p. pentobarbital. The lateral tail vein was visualized using a flashlight and 2.6 nmol of compound resuspended in 80 μl of phosphate buffered saline (PBS) was injected using a bent, 30 gauge, ½″ needle. For measurement of plasma concentration, the tip of the tail of an anesthetized animal was cut with a razor blade, and 75 μl of whole blood was milked, and collected with a capillary tube. After clotting and removal of cells by centrifugation, serum was diluted 1:10 in 50 mM Hepes, pH 7.4 and a wavelength scan from 400 nm to 850 nm was performed. Serum concentration was determined by peak height at 771 nm after subtraction of background (pre-injection serum), and correction for hemoglobin absorbance.

[7] = rats; cited from earlier work

inhibition of Pam78 binding to HA [1]: 90%
Compound: NCCC(O)(P(=O)(O)O)P(=O)(O)O [pamidronate]

Compound: CC1(C)C(/C=C/C2=C(Oc3ccc(CCC(=O)NCCC(O)(P(=O)([O-])O)P(=O)(O)O)cc3)C(=C\C=C3/N(CCCCS(=O)(=O)O)c4ccc(S(=O)(=O)O)cc4C3(C)C)/CCC2)=[N+](CCCCS(=O)(=O)O)c2ccc(S(=O)(=O)O)cc21 (centres unmarked) [Pam78]
time to asymptotic binding to HA ([2]; 1.5 mg/ml HA): ≤ 1 h
percent of peak binding to HA achieved ([2]; five minutes, 1.5 mg/ml (1.5 mM) HA, NK buffer): 37%
peak absorption ([3]; 1 μM in NK buffer): unchanged from IRDye78
peak emission ([3]; excitation fixed at 771 nm, NK buffer): 796 nm
time at which uptake in spine, ribs, paws and knees is detected above background ([4]; 2.6 nmol intravenous): 15 min
time by which phalanges, wrist, skull, pelvis, femur and ankle become visible ([4]; 2.6 nmol intravenous): ≤ 3 h
stability in vivo (skeletal signal) ([4]; twelve hours post-injection): no degradation of skeletal signal
concentration in ribs (mean±S.E.M.) ([5]; caudal three ribs on each side, skinless animal, 2.6 nmol injected): 910 ± 27 nM
skeletal uptake, percentage of injected dose ([5]; out of 2.6 nmol injected): 57%
amount bound to the skeleton ([5]; out of 2.6 nmol injected, assuming bone density 1.8 g/cm^3, skeletal weight 11.8% body weight): 1.5 nmol
early half-life of elimination from plasma [6]: 5.0 min
late half-life of elimination from plasma [6]: 15.4 min

Compound: O.O.O=P([O-])([O-])CP(=O)([O-])[O-].[99Tc+4] [^99mTc-MDP]
skeletal uptake [7]: 52%
